Test results from patent publication US20070082880A1 (priority 2005, published 2007).

Biological target: T1, human PKCθ full length enzyme (Homo sapiens, UniProt Q04759)
T1 construct: human PKCθ full length enzyme (Panvera Catalog No. P2996); purchased Panvera P2996
Test: PKCθ IMAP Assay
Assay type: biochemical
Details: average value when one or more samples were tested; ATP 6 uM, PKCθ 1 nM
Summary of the method: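 Full-length human PKCθ (1 nM final) with 6 uM ATP and 100 nM 5FAM-labelled peptide, 5% DMSO, 3.0 mM DTT in reaction buffer. 25 min at room temperature; IMAP bead binding 20 min, fluorescence polarization read. Compounds 2:1 serially diluted; no-ATP and no-enzyme wells as controls.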

T1 sequence (Q04759 whole entry): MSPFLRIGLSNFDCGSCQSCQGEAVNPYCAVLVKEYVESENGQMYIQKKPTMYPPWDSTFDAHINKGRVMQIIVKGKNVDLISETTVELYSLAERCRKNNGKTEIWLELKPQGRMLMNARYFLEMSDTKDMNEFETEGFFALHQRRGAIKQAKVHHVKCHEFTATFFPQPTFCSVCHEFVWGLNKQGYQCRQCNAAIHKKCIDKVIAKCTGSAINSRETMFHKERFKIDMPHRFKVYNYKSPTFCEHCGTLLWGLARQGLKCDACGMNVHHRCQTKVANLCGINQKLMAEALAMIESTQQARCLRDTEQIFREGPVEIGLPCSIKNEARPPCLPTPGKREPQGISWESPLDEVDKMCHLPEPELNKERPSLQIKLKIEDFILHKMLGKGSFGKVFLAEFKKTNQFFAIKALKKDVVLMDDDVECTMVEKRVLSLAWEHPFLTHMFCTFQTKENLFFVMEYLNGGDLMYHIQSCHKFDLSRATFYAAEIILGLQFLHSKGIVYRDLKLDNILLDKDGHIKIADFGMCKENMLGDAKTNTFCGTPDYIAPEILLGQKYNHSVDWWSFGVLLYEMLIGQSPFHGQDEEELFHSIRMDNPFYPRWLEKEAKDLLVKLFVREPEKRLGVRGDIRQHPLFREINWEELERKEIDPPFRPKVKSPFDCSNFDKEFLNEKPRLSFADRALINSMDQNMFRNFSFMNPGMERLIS

IC50 [nM]	SMILES
93	CCCOc1ccc(CN(C)C)cc1-c1cc2c(Nc3ccc4[nH]ccc4c3C)c(C#N)cnc2s1 [Compound 384, 2-{5-[(dimethylamino)methyl]-2-propoxyphenyl}-4-[(4-methyl-1H-indol-5-yl)amino]thieno[2,3-b]pyridine-5-carbonitrile]
> 30000	CCOc1ccc2cc(-c3cc4c(Nc5ccc6[nH]ccc6c5C)c(C#N)cnc4s3)ccc2c1 [Compound 385, 2-(6-ethoxy-2-naphthyl)-4-[(4-methyl-1H-indol-5-yl)amino]thieno[2,3-b]pyridine-5-carbonitrile]
2	Cc1c(Nc2c(C#N)cnc3sc(-c4cncc(C=O)c4)cc23)ccc2[nH]ccc12 [Compound 387, 2-(5-formylpyridin-3-yl)-4-[(4-methyl-1H-indol-5-yl)amino]thieno[2,3-b]pyridin-5-carbonitrile]
118	Cc1c(Nc2c(C#N)cnc3sc(-c4ccccc4F)cc23)ccc2[nH]ccc12 [Compound 388, 2-(2-fluorophenyl)-4-[(4-methyl-1H-indol-5-yl)amino]thieno[2,3-b]pyridine-5-carbonitrile]
18	Cc1c(Nc2c(C#N)cnc3sc(-c4cc(C=O)ccc4F)cc23)ccc2[nH]ccc12 [Compound 389, 2-(2-fluoro-5-formylphenyl)-4-[(4-methyl-1H-indol-5-yl)amino]thieno[2,3-b]pyridine-5-carbonitrile]
43	Cc1c(Nc2c(C#N)cnc3sc(-c4cccc(N(C)CCN(C)C)c4)cc23)ccc2[nH]ccc12 [Compound 390, 2-(3-{[2-(dimethylamino)ethyl](methyl)amino}phenyl)-4-[(4-methyl-1H-indol-5-yl)amino]thieno[2,3-b]pyridine-5-carbonitrile]
86	Cc1c(Nc2c(C#N)cnc3sc(-c4ccc(N(C)C)nc4)cc23)ccc2[nH]ccc12 [Compound 391, 2-[6-(dimethylamino)pyridin-3-yl]-4-[(4-methyl-1H-indol-5-yl)amino]thieno[2,3-b]pyridine-5-carbonitrile]
177	COCc1ccccc1-c1cc2c(Nc3ccc4[nH]ccc4c3C)c(C#N)cnc2s1 [Compound 392, 2-[2-(methoxymethyl)phenyl]-4-[(4-methyl-1H-indol-5-yl)amino]thieno[2,3-b]pyridine-5-carbonitrile]
10	Cc1c(Nc2c(C#N)cnc3sc(-c4cccc(NCCN(C)C)c4)cc23)ccc2[nH]ccc12 [Compound 394, 2-(3-{[2-(dimethylamino)ethyl]amino}phenyl)-4-[(4-methyl-1H-indol-5-yl)amino]thieno[2,3-b]pyridine-5-carbonitrile]
281	Cc1c(Nc2c(C#N)cnc3sc(-c4cnc(N5CCCCC5)nc4)cc23)ccc2[nH]ccc12 [Compound 395, 4-[(4-methyl-1H-indol-5-yl)amino]-2-(2-piperidin-1-ylpyrimidin-5-yl)thieno[2,3-b]pyridine-5-carbonitrile]
156	Cc1c(Nc2c(C#N)cnc3sc(-c4cnc(N5CCCC5)nc4)cc23)ccc2[nH]ccc12 [Compound 396, 4-[(4-methyl-1H-indol-5-yl)amino]-2-(2-pyrrolidin-1-ylpyrimidin-5-yl)thieno[2,3-b]pyridine-5-carbonitrile]
292	Cc1c(Nc2c(C#N)cnc3sc(-c4ccc(N5CCCCC5)nc4)cc23)ccc2[nH]ccc12 [Compound 397, 4-[(4-methyl-1H-indol-5-yl)amino]-2-(6-piperidin-1-ylpyridin-3-yl)thieno[2,3-b]pyridine-5-carbonitrile]
75	Cc1c(Nc2c(C#N)cnc3sc(-c4ccccc4CO)cc23)ccc2[nH]ccc12 [Compound 398, 2-[2-(hydroxymethyl)phenyl]-4-[(4-methyl-1H-indol-5-yl)amino]thieno[2,3-b]pyridine-5-carbonitrile]
1	Cc1c(Nc2c(C#N)cnc3sc(-c4ccccc4OCCN(C)C)cc23)ccc2[nH]ccc12 [Compound 399, 2-{2-[2-(dimethylamino)ethoxy]phenyl}-4-[(4-methyl-1H-indol-5-yl)amino]thieno[2,3-b]pyridine-5-carbonitrile]
437	N#Cc1cnc2sc(/C=C/c3ccccc3)cc2c1Nc1ccc2[nH]ccc2c1 [Compound 400, 4-(1H-indol-5-ylamino)-2-[(E)-2-phenylvinyl]thieno[2,3-b]pyridine-5-carbonitrile]
2450	N#Cc1cnc2sc(/C=C/c3ccc(F)cc3)cc2c1Nc1ccc2[nH]ccc2c1 [Compound 401, 2-[(E)-2-(4-fluorophenyl)vinyl]-4-(1H-indol-5-ylamino)thieno[2,3-b]pyridine-5-carbonitrile]
465	N#Cc1cnc2sc(/C=C/c3cccc(F)c3)cc2c1Nc1ccc2[nH]ccc2c1 [Compound 402, 2-[(E)-2-(3-fluorophenyl)vinyl]-4-(1H-indol-5-ylamino)thieno[2,3-b]pyridine-5-carbonitrile]
394	N#Cc1cnc2sc(/C=C/CCO)cc2c1Nc1ccc2[nH]ccc2c1 [Compound 403, 2-[(1E)-4-hydroxybut-1-en-1-yl]-4-(1H-indol-5-ylamino)thieno[2,3-b]pyridine-5-carbonitrile]

IC50 [nM]	SMILES
1140	COc1cccc(/C=C/c2cc3c(Nc4ccc5[nH]ccc5c4)c(C#N)cnc3s2)c1 [Compound 404, 4-(1H-indol-5-ylamino)-2-[(E)-2-(3-methoxyphenyl)vinyl]thieno[2,3-b]pyridine-5-carbonitrile]
477	COc1ccc(/C=C/c2cc3c(Nc4ccc5[nH]ccc5c4)c(C#N)cnc3s2)cc1 [Compound 405, 4-(1H-indol-5-ylamino)-2-[(E)-2-(4-methoxyphenyl)vinyl]thieno[2,3-b]pyridine-5-carbonitrile]
12000	Cc1ccc(/C=C/c2cc3c(Nc4ccc5[nH]ccc5c4)c(C#N)cnc3s2)cc1 [Compound 406, 4-(1H-indol-5-ylamino)-2-[(E)-2-(4-methylphenyl)vinyl]thieno[2,3-b]pyridine-5-carbonitrile]
23500	N#Cc1cnc2sc(/C=C/c3ccc(C(F)(F)F)cc3)cc2c1Nc1ccc2[nH]ccc2c1 [Compound 408, 4-(1H-indol-5-ylamino)-2-{(E)-2-[4-(trifluoromethyl)phenyl]vinyl}thieno[2,3-b]pyridine-5-carbonitrile]
3700	N#Cc1cnc2sc(/C=C/Cc3ccccc3)cc2c1Nc1ccc2[nH]ccc2c1 [Compound 409, 4-(1H-indol-5-ylamino)-2-[(1E)-3-phenylprop-1-en-1-yl]thieno[2,3-b]pyridine-5-carbonitrile]
1050	C=C(c1ccccc1)c1cc2c(Nc3ccc4[nH]ccc4c3)c(C#N)cnc2s1 [Compound 410, 4-(1H-indol-5-ylamino)-2-(1-phenylvinyl)thieno[2,3-b]pyridine-5-carbonitrile]
2550	CCCC/C=C/c1cc2c(Nc3ccc4[nH]ccc4c3)c(C#N)cnc2s1 [Compound 411, 2-[(1E)-hex-1-en-1-yl]-4-(1H-indol-5-ylamino)thieno[2,3-b]pyridine-5-carbonitrile]
413	COC/C=C/c1cc2c(Nc3ccc4[nH]ccc4c3)c(C#N)cnc2s1 [Compound 412, 4-(1H-indol-5-ylamino)-2-[(1E)-3-methoxyprop-1-en-1-yl]thieno[2,3-b]pyridine-5-carbonitrile]
7	Cc1c(Nc2c(C#N)cnc3sc(-c4ccc(S(N)(=O)=O)cc4)c(C)c23)ccc2[nH]ccc12 [Compound 413, 4-{5-cyano-3-methyl-4-[(4-methyl-1H-indol-5-yl)amino]thieno[2,3-b]pyridin-2-yl}benzenesulfonamide]
29	CNS(=O)(=O)c1ccc(-c2sc3ncc(C#N)c(Nc4ccc5[nH]ccc5c4C)c3c2C)cc1 [Compound 414, 4-{5-cyano-3-methyl-4-[(4-methyl-1H-indol-5-yl)amino]thieno[2,3-b]pyridin-2-yl}-N-methylbenzenesulfonamide]
642	CNS(=O)(=O)c1ccc(-c2sc3ncc(C#N)c(Nc4ccc5[nH]ccc5c4)c3c2C)cc1 [Compound 415, 4-[5-cyano-4-(1H-indol-5-ylamino)-3-methylthieno[2,3-b]pyridin-2-yl]-N-methylbenzenesulfonamide]
34	Cc1c(Nc2c(C#N)cnc3sc(/C=C/c4ccccc4)cc23)ccc2[nH]ccc12 [Compound 416, 4-[(4-methyl-1H-indol-5-yl)amino]-2-[(E)-2-phenylvinyl]thieno[2,3-b]pyridine-5-carbonitrile]
33	C=Cc1cc2c(Nc3ccc4[nH]ccc4c3C)c(C#N)cnc2s1 [Compound 417, 4-[(4-methyl-1H-indol-5-yl)amino]-2-vinylthieno[2,3-b]pyridine-5-carbonitrile]
100	Cc1c(Nc2c(C#N)cnc3sc(C4=CCN(C(=O)OC(C)(C)C)CC4)cc23)ccc2[nH]ccc12 [Compound 418, tert-butyl 4-{5-cyano-4-[(4-methyl-1H-indol-5-yl)amino]thieno[2,3-b]pyridin-2-yl}-5,6-dihydropyridine-1(2H)-carboxylate]
954	CC(C)(C)OC(=O)N1CC=C(c2cc3c(Nc4ccc5[nH]ccc5c4)c(C#N)cnc3s2)CC1 [Compound 419, tert-butyl 4-[5-cyano-4-(1H-indol-5-ylamino)thieno[2,3-b]pyridin-2-yl]-3,6-dihydropyridine-1(2H)-carboxylate]
14	Cc1c(Nc2c(C#N)cnc3sc(/C=C/CCO)cc23)ccc2[nH]ccc12 [Compound 420, 2-[(1E)-4-hydroxybut-1-en-1-yl]-4-[(4-methyl-1H-indol-5-yl)amino]thieno[2,3-b]pyridine-5-carbonitrile]
324	Cc1c(Nc2c(C#N)cnc3sc(C4=CCCCC4)cc23)ccc2[nH]ccc12 [Compound 421, 2-cyclohex-1-en-1-yl-4-[(4-methyl-1H-indol-5-yl)amino]thieno[2,3-b]pyridine-5-carbonitrile]
69	COC/C=C/c1cc2c(Nc3ccc4[nH]ccc4c3C)c(C#N)cnc2s1 [Compound 422, 2-[(1E)-3-methoxyprop-1-en-1-yl]-4-[(4-methyl-1H-indol-5-yl)amino]thieno[2,3-b]pyridine-5-carbonitrile]
